Like-named read-outs stand apart in the source and are kept apart here.
How the values were obtained:
[1] = test system: V79 fibroblastic line; experiment: Anti-clastogen effect: micronucleus cells under genotoxic 4-HNE stress; assay type: cell-based, hamster; settings: stress-HNE 1 ppm
Excerpt: The study has been carried out according to identical experimental conditions (sowing) to those presented in the here-above test 3, with cell exposure to a state of “4-HNE stress ” at […] genotoxic concentration, as described (Eckel P. M., Molecular Aspects of Medicine (2003), vol. 24, pp. 161-165) as generating cellular DNA breaks and micronucleus formation (clastogen effect).
The micronucleus cell number is counted following reading of the slides with epifluorescence microscope, on 2000 cells and after marking with orange acridine (DNA colorant).
Results, taking the middle values obtained from two independent experiments, are presented below in table 4, in comparison with those for N-acetyl-cysteine at 2 mM chosen as a positive reference molecule (number of micronucleus cells close to the non-exposed control).

[2] = test system: V79 fibroblastic line; experiment: Neutralization of 4-hydroxynonenal cytotoxicity, MTT cellular viability; assay type: cell-based, hamster; settings: 4-HNE 6 ppm
Method: The experimental study has been carried out on a fibroblastic line of hamster called V79, maintained in humid atmosphere at 37° C. and 5% CO2, then seeded in 96 wells plates at the rate of 0.5.10^4 cells per well.
The cellular viability of fibroblasts is measured by the incorporation method to the bromide of 3-(4,5-dimethylthiazol-2-yl)-2,5-diphenyltetrazolium (or MTT). The results, taking the middle values obtained from three independent experiments, are presented below in table 3, in comparison with those for the N-acetyl-cysteine at 2 mM chosen as a positive reference molecule (total restoration of cellular viability in relation to a control and the non stressed cells with 4-HNE).

[3] = test system: V79 cells; experiment: Protection against "UVA-induced" stress: intracellular ROS by CMDCF probe; assay type: cell-based, hamster; settings: irradiated cells, UVA 5 J. cm−2
Method: The study has been carried out according to identical experimental conditions (sowing) to those presented in the here-above tests 3 and 4, but with an exposure of V79 cells to ultraviolet radiation (λ315-400 nm) with the moderate dose of 5 J. cm^−2 (“UVA-induced” stress).
The formation of intracellular ROS is measured with the permeant fluorescent probe “CMDCF” derived from fluorescein (10 μm, 15 minutes incubation).
The percentages of CMDCF cells said “positive” (cells with intracellular formation of ROS are presented below in table 6, in comparison with unirradiated cells, then with cells treated with N-acetyl-cysteine (reference molecule) and different concentrations of 2-oxo-1,3-thiazolidine compound.

[4] = Scavenging speed constant of the hydroxyl radical, Ks (OH°); parameters: unit not given here; settings: pH 7,4, 37° C., one hour incubation; middle values of five experiments
Method: The method, described by Rehman A. and coll.
Experimentally, the tested substance is dissolved in a buffered medium of pH 7,4 to which is added a generating medium of OH^o. Following one hour of incubation at 37° C., the reaction is stopped with the help of trichloroacetic acid. […]

[5] = physchem
[6] = "in tubo" taurine formation in contact with H2O2 solution (HPLC); assay type: physicochemical; settings: 4 equivalents H2O2, pH 7.4, 37° C.
[7] = "Global" antioxidant power: desoxyribose protection with oxidase/hypoxanthine xanthine pair; settings: pH 7.5
Method: The production system of ROS, described by Nowak D. and coll. […] This is characterized by the sum of the effects against the superoxide anion O2^o−, hydrogen peroxide H2O2, and the hydroxyl radical OH^o, and is expressed by following the percentage of protection of a “detecting” molecule, desoxyribose.
Experimentally, the tested substance is dissolved in a buffered medium at pH 7.5, supplemented with NaCl, MgCl2 et CaCl2. After their incubation at 37° C. in the presence of the oxidase/hypoxanthine xanthine pair, EDTA and desoxyribose, the reaction is stopped with the help of trichloroacetic acid. After addition of thiobarbituric acid, an optic density measure at 532 nm is carried out, expressed later as percentage of desoxyribose protection (following comparison with a control).

[8] = literature value (Cabelli 1983); cited from earlier work

Q: What does the source list for `CC(=O)N[C@@H](CS)C(=O)O` [N-acetyl-cysteine, reference compound]?
A: Cell number with micronucleus/2000 cells ([1]; compound 2 mM): 27; viability at 2000 µM ([2]; compound 2 mM): 126%; % of CMDCF positive cells ([3]; compound 5 mM): 4%

Q: Which results are given for `O=C1NCCS1` [2-oxo-1,3-thiazolidine]?
A: Ks (OH°) [4]: 13.52; logP [5]: -0.27; taurine (% formation) ([6]; 3 h): 38%; taurine (% formation) ([6]; 7 h): 56%; taurine (% formation) ([6]; 24 h): 82%; taurine (% formation) ([6]; 48 h): 93%; Cell number with micronucleus/2000 cells ([1]; compound 5 mM): 21; viability at 100 µM ([2]; compound 0.1 mM): 40%; viability at 1000 µM ([2]; compound 1 mM): 58%; viability at 2500 µM ([2]; compound 2.5 mM): 100%; % of CMDCF positive cells ([3]; compound 0.625 mM): 24.7%; % of CMDCF positive cells ([3]; compound 1.25 mM): 15.3%; % of CMDCF positive cells ([3]; compound 2.5 mM): 12%; % of CMDCF positive cells ([3]; compound 5 mM): 7.3%; % protection ([7]; compound 10 mM): 19%; % protection ([7]; compound 20 mM): 25%

Q: Which “taurine (% formation)” value ([6]; 3 h) does the source give for `S=C1NCCS1` [2-thiono-1,3-thiazolidine] here?
A: Its value is 30%.

Q: And the “taurine (% formation)” value ([6]; 7 h)?
A: The value was 50%.

Q: What about the “taurine (% formation)” value ([6]; 24 h) of the same compound?
A: Its value is 77%.

Q: What about the “taurine (% formation)” value ([6]; 48 h) of the same compound?
A: The value was 89%.

Q: With `O=C1O[C@H]([C@@H](O)CO)C(O)=C1O` [ascorbic acid] as the compound, how does the “Ks (OH°)” value [8] read?
A: The value was 10.1 Gigas.M-1.s-1.
